Experimental data published in patent publication US20130216552A1, “CRTH2 MODULATORS” (Ironwood Pharmaceuticals, Inc., priority 2010, published 2013).

Columns and labels:
CRTH2 [1] = target: T1, CRTH2 (Homo sapiens, UniProt Q9Y5Y4); experiment: Human Whole Blood CD11b Antagonist Assay; type: cell-based; details: CD11b expression in eosinophils, agonist 15R-Methyl-PGD2 (10 nM)
T1 construct: polymorphonuclear cells (0.5 ml; 10^6/ml cells) in PBS containing 0.9 mM CaCl2 and 0.5 mM MgCl2; endogenous in cells; host or cells: polymorphonuclear cells (eosinophils gated by flow cytometry)
T1 sequence (Q9Y5Y4 1-395): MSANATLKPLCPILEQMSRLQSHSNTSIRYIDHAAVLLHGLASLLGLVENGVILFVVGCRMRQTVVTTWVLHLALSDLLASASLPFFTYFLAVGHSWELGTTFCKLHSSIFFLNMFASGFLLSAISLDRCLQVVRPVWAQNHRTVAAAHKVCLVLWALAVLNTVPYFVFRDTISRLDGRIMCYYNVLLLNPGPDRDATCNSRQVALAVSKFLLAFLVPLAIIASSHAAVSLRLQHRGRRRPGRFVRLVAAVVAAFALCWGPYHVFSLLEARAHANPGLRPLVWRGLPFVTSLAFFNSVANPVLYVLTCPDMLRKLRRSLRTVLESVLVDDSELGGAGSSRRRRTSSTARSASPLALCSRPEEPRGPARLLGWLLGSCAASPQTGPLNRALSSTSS
Procedure: Human Whole Blood CD11b Antagonist Assay (Modified from Nicholson, et al. Pulmonary Pharmacology and Therapeutics: 20 (2007); 52-59)
The potential CRTH2 antagonist activity of certain compounds was tested in human whole blood using an assay that tests the ability of the compounds to block the CD11b expression in eosinophils by 15-R-methyl-PGD2. A CRTH2 antagonist should block CD11b expression by subsequently added 15-Methyl-PGD2. Human whole blood ([…]) was incubated at 37° C. for 10 minutes in the presence of various concentrations of test compounds before being challenged with the agonist 15R-Methyl-PGD2 (10 nM). Reactions were terminated by the addition of ice-cold PBS+0.5% BSA+2 mM EDTA (1 mL) and centrifugation (300×g for 5 minutes at 4° C.) Cells were then incubated at 4° C. for 10 min in the presence of human IgG. Cells were then incubated for 30-45 min with a mixture of PE-Cy5-labeled mouse anti-human CD16 (10 ul; BD Biosciences) and FITC-labeled mouse anti-human CD11b (10 μL; Beckman Coulter.) After rinsing (1 mL ice-cold PBS+0.5% BSA+2 mM EDTA), red blood cells were lysed by the addition of 1 mL ice-cold H2O to the cell pellet for 30 sec-1 min immediately followed by the addition of 3.5% NaCl (300 μL.) Cells were then rinsed (2×−1 ml ice cold PBS+0.5% BSA+2 m MEDTA) and fixed in PBS containing 1% formaldehyde. The distribution of fluorescence intensities was measured by flow cytometry. Eosinophils were gated out on the basis of their granularity (high side scatter) and absence of CD-16. CD11b was then measured on this eosinophil population on the basis of fluorescence due to FITC.

CRTH2 [2] = target: T1, CRTH2; experiment: DPBS CD11b Antagonist Assay; type: cell-based; details: polymorphonuclear cells in PBS with CaCl2/MgCl2; CD11b expression in eosinophils; agonist 15R-Methyl-PGD2 (10 nM)
Procedure: DPBS CD11b Antagonist Assay
The potential CRTH2 antagonist activity of certain compounds was tested using a CD11b expression assay using essentially the method described by Monneret et al. (J Pharmacol Exp Ther 304:349-55, 2003). Briefly, polymorphonuclear cells (0.5 ml; 10^6/ml cells) in PBS containing 0.9 mM CaCl2 and 0.5 mM MgCl2) were preincubated with various concentrations of test compounds at room temperature for 10 minutes before they were challenged with the agonist 15R-Methyl-PGD2 (10 nM). The incubations were terminated by the addition of ice-cold FACSFlow (BD Biosciences; Cat#342003) and centrifugation (400 g for 5 minutes at 4° C.). The cells were then incubated for 30 minutes at 4° C. with a mixture of PE-labeled mouse anti-human VLA-4 (5 μl; BD Biosciences) and FITC-labeled mouse anti-human CD11b (10 μl; Beckman Coulter). The cells were then incubated with Optilyse C (0.25 ml; Beckman Coulter) for 15 minutes, centrifuged, and then fixed in PBS (0.4 ml; calcium and magnesium free) containing 1% formaldehyde. The distribution of fluorescence intensities among 60,000 cells was measured by flow cytometry. Eosinophils were gated out on the basis of their granularity (high side scatter) and labeling with VLA-4 (PE fluorescence). CD11b was then measured in the eosinophil region on the basis of fluorescence due to FITC. All data were corrected for the value obtained for the corresponding isotope control antibody.

SMILES | IC50 (CRTH2 [1]) | IC50 (CRTH2 [2])
Cc1c(Cc2ccccc2S(=O)(=O)N2CCOCC2)c2scnc2n1CC(=O)O [Compound I-5, 2-(5-Methyl-6-(2-(morpholinosulfonyl)benzyl)-4H-pyrrolo[2,3-d]thiazol-4-yl)acetic acid] | 3000 to 5000 nM | 3000 to 5000 nM
Cc1c(Cc2ccccc2S(=O)(=O)N2CCCC2)c2scnc2n1CC(=O)O [Compound I-2, 2-(5-Methyl-6-(2-(pyrrolidin-1-ylsulfonyl)benzyl)-4H-pyrrolo[2,3-d]thiazol-4-yl)acetic acid] |  | 100 to 500 nM
Cc1c(Cc2ccccc2S(=O)(=O)N2CCCC2)c2sccc2n1CC(=O)O [Compound I-4, 2-(5-Methyl-6-(2-(pyrrolidin-1-ylsulfonyl)benzyl)-4H-thieno[3,2-b]pyrrol-4-yl)acetic acid] | 20 to 100 nM | 1 to 5 nM
Cc1c(Cc2ccccc2S(=O)(=O)c2ccccc2)c2ccsc2n1CC(=O)O [Compound I-3, 2-(5-Methyl-4-(2-(phenylsulfonyl)benzyl)-6H-thieno[2,3-b]pyrrol-6-yl)acetic acid] | 5 to 20 nM | < 1 nM

Further lines, results first:

IC50 (CRTH2 [1]) | IC50 (CRTH2 [2]) | SMILES
20 to 100 nM | < 1 nM | Cc1c(Cc2ccccc2S(=O)(=O)N2CCCC2)c2ccsc2n1CC(=O)O [Compound I-1, 2-(5-Methyl-4-(2-(pyrrolidin-1-ylsulfonyl)benzyl)-6H-thieno[2,3-b]pyrrol-6-yl)acetic acid]
5 to 20 nM | < 1 nM | Cc1c(Cc2ccccc2S(=O)(=O)N2CCOCC2)c2ccsc2n1CC(=O)O [Compound I-6, 2-(5-Methyl-4-(2-(morpholinosulfonyl)benzyl)-6H-thieno[2,3-b]pyrrol-6-yl)acetic acid]
